Assays:
Type in all cases: cell-based
[1] = test system: adult human bone marrow CD34+ cells; test: Colony-forming cell (CFC) assay in methylcellulose
Description: Colony-forming cells (CFC) were assayed under standard conditions in semisolid media as previously described (Brandt et al., Blood 94:106-113, 1999). Briefly 1×10^3 primary CD34^+ cells or unfractionated cultured cells exposed to different conditions used following 9 days of culture were plated in duplicate cultures containing 1 ml IMDM with 1.1% methylcellulose, 30% FBS, 5×10^−5 M 2-mercaptoethanol (Methocult, Stem Cell Technologies, Vancouver, BC, Canada), and a cocktail of growth factors including 100 ng/ml of SCF, 5 U/mL of EPO, 50 ng/mL of IL-3, 50 ng/mL of IL-6 and 50 ng/mL of G-CSF (Amgen Inc., Thousand Oaks, Calif.). The cells were plated into 35 mm tissue-culture dishes (Costar), and after 14 days of incubation at 37° C. in a 100%-humidified atmosphere containing 5% CO2, the colonies were scored with an inverted microscope following standard criteria (Breems et al., Leukemia, 8:1095-1104, 1994).

[2] = test system: adult human bone marrow CD34+ cells; test: Phenotypic analysis (FACS) of marrow CD34+ cells after ex vivo culture
Description: (§1) To promote cell division of isolated CD34^+ cells, a stroma-free suspension culture was established as previously described (Bazil et al., 1995). Tissue culture dishes (35 mm; Costar, Corning, N.Y.) were seeded with 1×10^5 CD34^+cells/well in 2.5 mL Iscove modified Dulbecco medium (IMDM) (Biowhittaker, Walkersville, Md.) containing 30% FBS and a cocktail of cytokines specifically thought to promote exit from G0/G1 in primitive HSC populations which consisted of 100 ng/mL recombinant stem cell factor (SCF), 100 ng/mL FLT-3 ligand, 100 ng/mL thrombopoetin (TPO) and 50 ng/mL of interleukin (IL)-3, (all from Amgen Inc., Thousand Oaks, Calif.).
(§2) Cells were maintained in the media and incubated at 37° C. in a 100%-humidified atmosphere containing 5% CO2 for 48 hours. After intial 16 hours of incubation cells were exposed to the demethylating agent, 5-aza2′deoxycitidine (5azaD) (Sigma Chemicals, St. Louis, Mo.) at a concentration of 10^−6M. After 48 hours, cells were washed by centrifugation and then equally distributed to new tissue culture dishes in 2.5 mL IMDM supplemented with 30% FBS containing cytokines known to promote terminal differentiation of HSC into multiple hematopoietic lineages. The cocktail of cytokines contained 100 ng/mL of SCF, 50 ng/ml of granulocyte colony-stimulating factor (G-CSF), 50 ng/mL of IL-3, 50 ng/ml of IL-6 and 5 units (U)/mL of recombinant erythropoietin (EPO) (Amgen Inc., Thousand Oaks, Calif.). Cells at this time point were exposed to Trichostatin (TSA) (Sigma Chemical., St. Louis, Mo.) at 5 ng/mL and the culture was continued for an additional 7 days. At the end of the culture period cells were counted for viability by the trypan blue exclusion method using an inverted microscope. 5-fluorouracil (5-FU) (Sigma Chemical., St. Louis, Mo.) was used at a concentration of 200 μg/ml and added at the 16 hour time point instead of 5azaD and the cultures carried on as described above with no addition of TSA.
(§3) The phenotypic characteristics of the CD34^+ cells were analyzed using FACS. After 9 days of culture, expanded marrow CD34^+ cells were analyzed for primitive HSC phenotype, previously defined, by using flow activated-cell sorter (FACS) (Becton Dickinson (BD) FACS Calibur, San Jose, Calif.). Cells were stained with anti-human CD34^+ moAb conjugated either to fluorescein isothiocyanate (FITC) or phycoerythrin (PE) and another moAb including anti-CD38, anti-CD117, anti-CD90. To determine the lineage positive cells a panel of moab all conjugated to FITC (anti-CD2, anti-CD14, anti-CD15, anti-CD19 and anti-GlyA) (all antibodies were purchased from BD) were utilized. All anaylsis were paired with the corresponding matched isotype control of the specific moAb utilized. All staining and washes were performed in DPBS (Biowhittaker, Walkersville Md.) and 0.5% BSA (Sigma, Chemicals Co., St. Louis, Mo.). Immediately prior to FACS anaylsis, […] propidium iodide (PI) (Sigma, Chemicals Co., St. Louis, Mo.) was added for the exclusion of nonviable cells for phenotypic analysis. Using Cell-Quest software (BD), at least 10,000 live cells were acquired for each analysis.

[3] = test system: adult human bone marrow CD34+ cells; test: Colony-forming cell (CFC) assay in methylcellulose; settings: after 5 days
[4] = test system: adult human bone marrow CD34+ cells; test: Ex vivo expansion culture: cell counts and CD34+CD90+ cell numbers
Description: as §1, §2, §3

[5] = colonies/plate, cells after 9 days with cytokines, mean of 2 ± SEM
[6] = 9 days of culture, single agent, % of total cells
[7] = 9 days of culture, single agent
[8] = 9 days with cytokines, mean of 3 ± SEM

`O=c1[nH]cc(F)c(=O)[nH]1` [5-FU, 5-fluorouracil] was tested, and the “assayable hematopoietic progenitor cells” value ([1]; 9 days with cytokines, compared with primary cells) was “no assayable hematopoietic progenitor cells”, the “Total Number Colonies/plate” value ([1]; cells after 9 days with cytokines, mean of 2 ± SEM) was 0 and the BFU-E [1, 5] was 0. For the same molecule, the CFU-GM [1, 5] was 0, the CFU-Mix [1, 5] was 0 and the “Plating Efficiencies” value ([1]; total number of hematopoietic colonies/total cells plated × 100) was 0. The “CD34+ CD90+ %” value [2, 6] was 1.2%, the “CD34+ CKit lo %” value [2, 6] was 4% and the “CD34+ Lin− %” value [2, 6] was 27%. The “CD34+CD38− %” value [2, 6] was 27%, the “Total CD34+ %” value [2, 6] was 27% and the “% of CD34+ cells that were CD90+” value ([2]; day 9) was 10%. The “% of cells that were CD34+” value ([2]; day 9) was 20%, the “assayable hematopoetic progenitor cells” value [3] was “no assayable hematopoetic progenitor cells” and the “% CD34+ of all cells” value [4, 7] was 26%. For the same molecule, the “% CD34+ thy-1+ cells” value [4, 7] was 1%, the “Absolute CD34+ thy-1+ cells ×10^5” value [4, 7] was 0.0002 ×10^5 and the “Absolute CD34 counts ×10^5” value [4, 7] was 0.0065 ×10^5. The “Fold changes from the original cells” value ([4]; 9 days of culture, single agent, CD34+CD90+ cells) was 0.001 fold, the “Total counts ×10^5” value ([4]; 9 days of culture, single agent, start 1×10^5 CD34+ cells/well) was 0.025 ×10^5 and the “Absolute CD34+ Number (×10^4)” value [4, 8] was 0.1 ± 0.0 ×10^4. The “Absolute CD34+CD90+ Numbers (×10^4)” value [4, 8] was 0.0 ×10^4, the “Total Mononuclear Cell Number (×10^4)” value [4, 8] was 0.3 ± 0.0 ×10^4 and the “CD34+CD90+ cells observed” value ([4]; by day 9) was “no CD34^+CD90^+ cells were observed”. The “Fold Expansion of CD34+CD90+” value ([4]; compared to the primary cell numbers, mean of 3 ± SEM) was 0.0 fold and the “absolute number of CD34+CD90+ cells in the culture” value ([4]; day 9, from 22,000 at start) was 700.

From patent publication US7927785B2, “Methods for in vitro expansion of hematopoietic stem cells” (The Board of Trustees of the University of Illinois, priority 2002, dated 2011)
